Consider 1 compound from ChEMBL document CHEMBL2331167, “Inhibitory effect of novel somatostatin peptide analogues on human cancer cell growth based on the selective inhibition of DNA polymerase β” (Bioorg Med Chem, 2013).

The target in one assay is T1, DNA polymerase kappa (Homo sapiens, UniProt Q9UBT6).
T1 sequence (Q9UBT6 whole entry): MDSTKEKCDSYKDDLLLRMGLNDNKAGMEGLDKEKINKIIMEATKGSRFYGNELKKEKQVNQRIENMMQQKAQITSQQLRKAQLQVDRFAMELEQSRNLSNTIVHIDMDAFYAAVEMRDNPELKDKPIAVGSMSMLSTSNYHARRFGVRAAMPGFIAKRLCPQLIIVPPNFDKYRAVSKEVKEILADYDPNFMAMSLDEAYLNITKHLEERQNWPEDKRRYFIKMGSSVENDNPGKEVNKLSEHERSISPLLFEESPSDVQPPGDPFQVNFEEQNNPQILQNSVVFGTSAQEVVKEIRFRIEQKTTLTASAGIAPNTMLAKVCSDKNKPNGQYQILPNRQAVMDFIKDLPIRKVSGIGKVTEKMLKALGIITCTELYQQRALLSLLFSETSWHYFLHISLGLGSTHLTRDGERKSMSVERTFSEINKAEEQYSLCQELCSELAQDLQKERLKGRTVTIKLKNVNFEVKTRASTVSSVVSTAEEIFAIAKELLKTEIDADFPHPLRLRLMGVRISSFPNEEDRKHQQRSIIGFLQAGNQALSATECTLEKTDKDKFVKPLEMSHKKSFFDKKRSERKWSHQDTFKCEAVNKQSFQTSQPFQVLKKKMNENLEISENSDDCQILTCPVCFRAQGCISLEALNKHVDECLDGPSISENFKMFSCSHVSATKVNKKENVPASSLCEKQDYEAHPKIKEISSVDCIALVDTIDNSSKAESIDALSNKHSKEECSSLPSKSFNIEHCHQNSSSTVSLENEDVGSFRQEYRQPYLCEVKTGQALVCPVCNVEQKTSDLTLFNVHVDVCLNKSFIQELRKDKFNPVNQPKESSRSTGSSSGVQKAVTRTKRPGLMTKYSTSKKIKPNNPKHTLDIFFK
The assay is described as follows: Inhibition of human DNA polymerase kappa using poly(dA)/oligo(dT)18 (A/T, 2/1)/dTTP DNA template-primer substrate measured at 37 degC for 60 mins.

In another assay the test system is HCT-116. Description: Cytotoxicity against MMS-induced p53 -/- human HCT116 cells assessed as reduction in clonogenic survival at 13.7 uM incubated for 24 hrs by WST-1 assay relative to control. Type of assay: functional.
The next assay deals with T2, DNA polymerase eta (Homo sapiens, UniProt Q9Y253).
T2 sequence (Q9Y253 whole entry): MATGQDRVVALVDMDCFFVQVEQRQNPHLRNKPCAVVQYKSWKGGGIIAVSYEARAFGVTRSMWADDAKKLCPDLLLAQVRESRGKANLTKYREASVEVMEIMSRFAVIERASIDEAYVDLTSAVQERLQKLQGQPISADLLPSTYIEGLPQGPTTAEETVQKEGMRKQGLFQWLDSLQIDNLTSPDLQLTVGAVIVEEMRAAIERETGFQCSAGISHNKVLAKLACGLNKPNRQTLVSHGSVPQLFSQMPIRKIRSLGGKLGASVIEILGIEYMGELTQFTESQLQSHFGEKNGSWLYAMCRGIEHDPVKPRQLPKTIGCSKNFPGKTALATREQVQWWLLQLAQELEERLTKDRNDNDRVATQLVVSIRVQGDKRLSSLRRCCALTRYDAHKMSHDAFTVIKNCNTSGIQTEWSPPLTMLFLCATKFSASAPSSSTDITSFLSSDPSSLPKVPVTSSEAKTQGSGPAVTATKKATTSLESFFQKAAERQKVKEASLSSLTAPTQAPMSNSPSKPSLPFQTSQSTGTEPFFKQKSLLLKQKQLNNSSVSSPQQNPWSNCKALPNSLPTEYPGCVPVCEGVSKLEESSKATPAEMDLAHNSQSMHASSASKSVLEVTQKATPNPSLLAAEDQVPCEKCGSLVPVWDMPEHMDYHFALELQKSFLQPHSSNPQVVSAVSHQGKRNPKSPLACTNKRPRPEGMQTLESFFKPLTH
Description: Inhibition of human DNA polymerase eta using poly(dA)/oligo(dT)18 (A/T, 2/1)/dTTP DNA template-primer substrate measured at 37 degC for 60 mins.

A short description of assay [1]: Inhibition of calf DNA polymerase alpha using poly(dA)/oligo(dT)18 (A/T, 2/1)/dTTP DNA template-primer substrate measured at 37 degC for 60 mins. Set-up: species or system Bos taurus.
Assay [2] concerns the target T3, DNA polymerase subunit gamma-1 (Homo sapiens, UniProt P54098).
T3 sequence (P54098 whole entry): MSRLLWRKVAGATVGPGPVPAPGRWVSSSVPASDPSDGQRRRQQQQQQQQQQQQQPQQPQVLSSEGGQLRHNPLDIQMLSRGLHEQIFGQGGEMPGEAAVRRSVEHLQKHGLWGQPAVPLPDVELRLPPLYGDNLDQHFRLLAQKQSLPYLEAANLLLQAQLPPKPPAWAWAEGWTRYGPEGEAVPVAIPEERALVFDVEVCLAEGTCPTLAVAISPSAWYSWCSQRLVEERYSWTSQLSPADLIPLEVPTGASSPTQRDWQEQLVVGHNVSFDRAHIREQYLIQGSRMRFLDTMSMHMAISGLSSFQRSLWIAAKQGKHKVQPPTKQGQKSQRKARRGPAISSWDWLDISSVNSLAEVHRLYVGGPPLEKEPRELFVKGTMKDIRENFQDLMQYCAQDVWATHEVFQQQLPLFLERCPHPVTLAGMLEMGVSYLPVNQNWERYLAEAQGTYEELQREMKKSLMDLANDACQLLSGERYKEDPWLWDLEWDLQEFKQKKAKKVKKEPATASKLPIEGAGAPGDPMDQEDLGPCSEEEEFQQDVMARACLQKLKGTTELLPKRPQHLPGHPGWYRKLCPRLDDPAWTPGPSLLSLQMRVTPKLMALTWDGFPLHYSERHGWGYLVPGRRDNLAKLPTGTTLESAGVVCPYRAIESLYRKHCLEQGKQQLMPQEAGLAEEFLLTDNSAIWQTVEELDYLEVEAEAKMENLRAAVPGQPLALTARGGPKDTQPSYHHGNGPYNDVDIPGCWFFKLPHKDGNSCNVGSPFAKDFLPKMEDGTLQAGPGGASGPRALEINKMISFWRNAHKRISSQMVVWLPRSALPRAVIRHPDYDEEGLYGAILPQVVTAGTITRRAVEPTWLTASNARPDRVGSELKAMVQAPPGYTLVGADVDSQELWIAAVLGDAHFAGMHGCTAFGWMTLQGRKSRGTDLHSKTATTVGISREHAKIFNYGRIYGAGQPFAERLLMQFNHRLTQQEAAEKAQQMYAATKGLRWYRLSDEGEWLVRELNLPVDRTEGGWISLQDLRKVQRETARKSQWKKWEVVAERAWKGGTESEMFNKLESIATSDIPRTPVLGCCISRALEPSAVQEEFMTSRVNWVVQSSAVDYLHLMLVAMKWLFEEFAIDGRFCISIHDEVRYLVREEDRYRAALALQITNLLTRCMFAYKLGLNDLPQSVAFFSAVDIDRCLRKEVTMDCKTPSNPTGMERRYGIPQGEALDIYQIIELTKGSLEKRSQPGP
Description: Inhibition of human DNA polymerase gamma using poly(dA)/oligo(dT)18 (A/T, 2/1)/dTTP DNA template-primer substrate measured at 37 degC for 60 mins.

Usually IC50 stands for the concentration that gives 50% inhibition. The low end stands for greater potency, the high end for weaker potency. For the compound `CC[C@H](C)[C@H](NC(=O)[C@H](Cc1ccc(O)cc1)NC(=O)OC(C)(C)C)C(=O)Nc1cccc2ccccc12`, the concentration for half-maximal inhibition (IC50) (at DNA polymerase kappa; at DNA polymerase eta; in assay [1]; in assay [2]) was > 200 µM each time. For the same compound, the “fold change (FC)” value in the assay with HCT-116 amounted to 25.
